Source: patent US20030229105A1, “Treatment of autoimmune disorders” (Cyclacel Limited, priority 2002, published 2003)

Key:
[1] = test system: HIV-1-infected ACH2 cells; experiment: Annexin V and PI double staining flow cytometry; type: cell-based; conditions: ACH2, especially with TNF-α; 10 μM, 48 h
Excerpt: (§1) Apoptosis and necrosis are two pathways that lead to cell death. Apoptosis is characterized by a series of morphological features, including cell shrinkage, plasma membrane blebbing, phosphatidylserine translocation to the outer leaflet of the plasma membrane, nuclear condensation, and DNA fragmentation (1). To distinguish apoptotic from necrotic cells, we performed a flow cytometry experiment using Annexin V and PI double staining. Annexin V is a sensitive probe for phosphatidylserine, and PI was used to detect membrane loss, since membrane loss leads to the accessibility of PI staining to DNA. […] At 48 h after drug treatment, most of the apoptotic cells were found at the late stage of apoptosis and not in the necrotic population (FIG. 6A). […] Absorbances of the samples were read every 60 min in a Spectramax 250 microplate reader at 405 nm.
(§2) Cells were collected, stained with PI and FITC-Annexin V, and analyzed by FACS. […] The antigen-antibody complexes were detected using ^125I-labeled protein G. (C) Cells were washed in PBS and analyzed for caspase-3 activity using a colorimetric protease assay kit (Chemicon). […] Absorbances of samples were read every 60 min in a microplate reader at 405 nm.
Apoptosis was determined by using Annexin V and PI double staining (Annexin V-FITC; PharMingen International). […] Cells were acquired and analyzed using CELLQuest software (Becton Dickinson).

[2] = test system: PARP; experiment: Immunoblot of PARP cleavage; type: cell-based; conditions: induced ACH2 cells exposed to Roscovitine
Excerpt: as §1, with “6A). We next investigated whether the apoptotic cascade through the caspase-3 pathway was activated under drug treatment.” for “6A).”
as §2

[3] = test system: caspase-3; experiment: Caspase-3 colorimetric protease assay (DEVD-pNA) on cell lysates; type: cell-based; conditions: induced ACH2 cells, 37° C., 3 h
Excerpt: Apoptosis and necrosis are two pathways that lead to cell death. Apoptosis is characterized by a series of morphological features, including cell shrinkage, plasma membrane blebbing, phosphatidylserine translocation to the outer leaflet of the plasma membrane, nuclear condensation, and DNA fragmentation (1). To distinguish apoptotic from necrotic cells, we performed a flow cytometry experiment using Annexin V and PI double staining. Annexin V is a sensitive probe for phosphatidylserine, and PI was used to detect membrane loss, since membrane loss leads to the accessibility of PI staining to DNA. […] Absorbances of the samples were read every 60 min in a Spectramax 250 microplate reader at 405 nm.
as §2
Cells were washed in PBS and analyzed for caspase-3 activity by using a CPP32/Caspase-3 Colorimetric Protease Assay Kit (Chemicon, Temecula, Calif.) according to the manufacturers' instructions. […] Protein concentrations of the lysates were determined by using the bicinchoninic acid assay reagent (Pierce, Rockford, Ill.). […]

[4] = test system: HIV-1 genomic, structural, and regulatory RNAs; experiment: Northern blot with whole genomic HIV-1 probe in ACH2 cells; type: cell-based; conditions: ACH2, TNF-α, then increasing concentrations (1, 10, 50 μM)
Experimental: At days 2, 4, and 6, the supernatants were collected, and the released HIV-1 particles were measured by using a p24 antigen ELISA assay. (B) Twenty micrograms of total RNA was separated on an RNA-formaldehyde-agarose gel, transferred, and probed with full-length labeled HIV-1 genome RNA. The hybridized genomic RNA, singly spliced (structural), and doubly spliced (regulatory) RNAs were exposed and counted by using Molecular Dynamic PhosphorImager software.

[5] = target: cdk4 (Homo sapiens, UniProt P11802); conditions: cited from earlier work
Chain of cdk4 (P11802 whole entry, species assumed): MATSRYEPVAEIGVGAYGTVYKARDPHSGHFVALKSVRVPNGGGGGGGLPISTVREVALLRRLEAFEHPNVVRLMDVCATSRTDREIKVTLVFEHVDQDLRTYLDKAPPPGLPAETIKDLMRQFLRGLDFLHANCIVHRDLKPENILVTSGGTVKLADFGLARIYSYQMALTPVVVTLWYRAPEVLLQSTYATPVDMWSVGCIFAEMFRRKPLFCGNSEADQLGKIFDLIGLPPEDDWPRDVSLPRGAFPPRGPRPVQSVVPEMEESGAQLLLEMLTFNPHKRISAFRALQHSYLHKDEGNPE
Chain of cdk4 (P24385 whole entry partner, species assumed): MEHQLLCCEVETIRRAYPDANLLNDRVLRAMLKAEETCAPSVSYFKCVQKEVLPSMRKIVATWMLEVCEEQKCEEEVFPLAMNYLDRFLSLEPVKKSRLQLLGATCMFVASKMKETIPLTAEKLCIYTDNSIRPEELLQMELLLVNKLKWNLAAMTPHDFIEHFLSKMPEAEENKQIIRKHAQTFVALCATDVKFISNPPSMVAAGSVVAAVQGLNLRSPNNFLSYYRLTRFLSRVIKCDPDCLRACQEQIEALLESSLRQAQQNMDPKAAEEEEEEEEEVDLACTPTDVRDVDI

Roscovitine
number of apoptotic (Annexin V-stained) cells [1]: remarkable increase in the number of apoptotic cells
PARP cleavage [2]: almost completely cleaved
caspase-3 activity increase [3]: ~5 fold
HIV-1 genomic, structural, and regulatory RNA levels [4]: dramatically decreased
reported inhibition of cdk4 [5]: not cdk4 or -6
